From patent publication US20190133930A1, “Methods of Anesthetizing Nerve Tissue in the Trigeminal Nerve Pathway and Medical Uses Thereof” (Apollonia, LLC, priority 2014, published 2019) come the findings set out here.

What all share (format): in vitro ADME
A short description of data set [1]: Caco-2 cell monolayer apical to basolateral permeability of local anesthetic after excipient pre-treatment. Conditions: human, Caco-2, pH 6, Caco-2, A→B, 10 mM Tetracaine HCl, apical pH 6.0, 0.5 hr. The procedure: (§1) A first experiment was performed to test the ability of a mucosal absorption enhancer to promote transport of a local anesthetic agent across a mucosal epithelial cell monolayer. In this experiment, the Caco-2 cell line (an intestinal mucosal cell line) was grown and maintained at a pH of 6.0 for the length of time sufficient to establish tight junctions between the cells in the monolayer. After formation of the monolayer, sodium caprate was administered to the apical side of the Caco-2 cell monolayer at a concentration depending on the given test sample. After 20 minutes, the sodium caprate was washed off of the monolayer. Tetracaine hydrochloride was then administered to the apical side of the Caco-2 cell monolayer at a concentration of 10 mM. An additional test sample including tetracaine but lacking sodium caprate was also administered to the apical side of a separate Caco-2 cell monolayer as a control. The assay duration was 30 minutes. The apical to basolateral permeability rate coefficient of tetracaine across the Caco-2 cell monolayer was determined by LC/MS/MS for each test composition. The permeability rate coefficient (Papp) was based on the percent of the drug that is transported across the epithelial monolayer as a function of time and surface area of the monolayer. Drug permeability across the Caco-2 cell monolayers is a well-known model of transmucosal drug absorption in humans.
(§2) Caco-2 cells grown in tissue culture flasks were trypsinized, suspended in medium, and the suspensions were applied to wells of a Millipore 96 well Caco-2 plate. The cells were allowed to grow and differentiate for three weeks, feeding at 2-day intervals.
(§3) The Caco-2 cells were treated with the excipient (sodium caprate) for 20 minutes at concentrations of 0.2%, 0.5%, 1.0%, and 2.0%. The excipient was then washed off of the Caco-2 cell monolayer. For Apical to Basolateral (A→B) permeability, the test agent (10 mM Tetracaine HCl) was added to the apical (A) side and amount of permeation was determined on the basolateral (B) side. The A-side buffer contained 100 μM Lucifer Yellow (LY) dye and 10 μM Atenolol, in Transport Buffer (1.98 g/L glucose in 10 mM HEPES, 1× Hank's Balanced Salt Solution without Mg2+ and Ca2+) pH 6.0 for test articles. The B-side buffer was standard Transport Buffer, pH 7.4. Caco-2 cells were incubated with these buffers for 0.5 hr, and the receiver side buffer was removed for analysis by LC/MS/MS (propranolol used as internal LC/MS standard).
(§4) To verify that the Caco-2 cell monolayers were properly formed (and remained intact during the assay), aliquots of the cell buffers were analyzed by fluorescence and LC/MS/MS to determine the transport of the impermeable dye Lucifer Yellow and atenolol, respectively. Any deviations from control values are reported.
(§5) Data are expressed as permeability (Papp): Papp=(dQ/dt)/C0A
(§6) Where dQ/dt is the rate of permeation, C0 is the initial concentration of test agent, and A is the area of the monolayer.
(§7) For analytical method development, the analyte signal was optimized for each compound by ESI positive or negative ionization mode. An MS2 scan or an SIM scan was used to optimize the fragmenter voltage and a product ion analysis was used to identify the best fragment for analysis, and the collision energy was optimized using a product ion or MRM scan. An ionization ranking was assigned indicating the compound's ease of ionization.
(§8) Samples were analyzed by LC/MS/MS using an Agilent 6410 mass spectrometer coupled with an Agilent 1200 HPLC and a CTC PAL chilled autosampler, all controlled by MassHunter software (Agilent). After separation on a C18 reverse phase HPLC column (Agilent Zorbax StableBond 3.5 μm, 2.1×30 mm) using an acetonitrile-water gradient system, peaks were analyzed by mass spectrometry (MS) using ESI ionization in MRM mode.
A general note: Passage across Caco-2 layers is used to estimate intestinal permeability.

Another data set concerns Caco-2 cell monolayer. Described as above. Conditions: Caco-2; sodium caprate 0.2-2.0% versus no excipient; dose dependent. The procedure: as §1, §2, §3, §4, §5, §6, §7, §8
Data set [2] in a line: MatTek EpiAirway cell monolayer permeability of local anesthetics after excipient pre-treatment. Conditions: human, pH 6, EpiAirway, 10 mM test article, donor pH 6.0, 37° C., 0.5 hr; excipient: none.
Assay in data set [3]: as above
Conditions: human, pH 6, EpiAirway, 10 mM test article, donor pH 6.0, 37° C., 0.5 hr. As for the experimental part: The EpiAirway™ cell line is derived from normal human respiratory airway cells and models the mucosal tissue in the nasal cavity's respiratory airway, the main site of drug absorption following intranasal administration.
EpiAirway™ tissues were treated with the excipients (0.5% sodium caprate, 0.5% sodium deoxycholate, 0.5% polyoxyethylene 9 lauryl ether, and 0.5% lysophosphatidylcholine) for 20 min. The excipients were then washed off the EpiAirway™ tissues. […] The receiver wells contained standard transport buffer. The fluorescent marker Lucifer Yellow and atenolol (10 μM) were also included to monitor monolayer integrity at the end of the assay. The plates were incubated at 37° C. for 30 min. An aliquot of the receiver chamber was removed for analysis.
At the end of the incubation period, the donor plate was removed from the receiver plate. The donor and receiver samples were analyzed and quantified by LC-MS/MS (propranolol used as internal LC-MS standard).
To verify the monolayer integrity, aliquots of the cell buffers were analyzed by fluorescence and LC-MS/MS to determine the transport of the impermeable dye Lucifer Yellow and atenolol, respectively.
as §5, §6
For mass spectroscopy method development, the signal was optimized for each compound by electrospray ionization (ESI) in positive ionization mode. An MS2 scan was used to optimize the precursor ion mass, and an SIM scan was used to optimize the fragmenter voltage. Product ion analysis was used to identify the best fragment and collision energy for analysis.
Following MRM method optimization, a test injection was performed and an ionization ranking was assigned indicating the compound's ease of ionization.
Samples were analyzed by LC/MS/MS using an Agilent 6410 mass spectrometer coupled with an Agilent 1200 HPLC and a CTC PAL chilled autosampler, all controlled by MassHunter software (Agilent). After separation on a C18 reverse phase HPLC column (Agilent Zorbax StableBond 3.5 um, 2.1×30 mm) using an acetonitrile-water gradient, peaks were analyzed by mass spectrometry using ESI ionization in MRM mode. Diclofenac was utilized as an analytical internal standard (IS).

Where [4] appears, read: 20 min pre-treatment with 0.5% Sodium Caprate.
Where [5] appears, read: 20 min pre-treatment with 0.5% Lysophosphatidylcholine.
[6] abbreviates: 20 min pre-treatment with 0.5% Polyoxyethylene 9 Lauryl Ether.
Where [7] appears, read: 20 min pre-treatment with 0.5% Sodium Deoxycholate.

Where a name gives a salt, the structure may show the parent alone.

With `CCCCNc1ccc(C(=O)OCCN(C)C)cc1` [Tetracaine, Tetracaine HCl], the apparent permeability from apical to basolateral (Papp A→B) (commonly the apparent permeability from the apical to the basolateral side of a cell layer) at 0.5 hr, 10 mM in data set [1] (20 min pre-treatment with 0.2% Sodium Caprate) amounted to 32.2 ×10⁻⁶ cm/s; in data set [1] (setting [4]), 55.9 ×10⁻⁶ cm/s; in data set [1] (20 min pre-treatment with 1.0% Sodium Caprate) it was 54.8 ×10⁻⁶ cm/s; in data set [1] (20 min pre-treatment with 2.0% Sodium Caprate), 139 ×10⁻⁶ cm/s; in data set [1] (excipient: None), 17.7 ×10⁻⁶ cm/s. Moreover, in the data set with Caco-2 cell monolayer, the “effect of sodium caprate on permeability across a mucosal epithelial cell monolayer” value is listed as “significantly improved the permeability”. The Papp A→B at 30 min, 10 mM worked out at 10.8 ×10⁻⁶ cm/s in data set [2]; 71.6 ×10⁻⁶ cm/s in data set [3] (setting [5]); 126 ×10⁻⁶ cm/s in data set [3] (setting [6]); 56.8 ×10⁻⁶ cm/s in data set [3] (setting [4]); 155 ×10⁻⁶ cm/s in data set [3] (setting [7]).

For the compound `CCCCN1CCCCC1C(=O)Nc1c(C)cccc1C` (stereo not shown) [Bupivacaine, Bupivacaine HCl], the Papp A→B at 30 min, 10 mM in data set [2] is 19.2 ×10⁻⁶ cm/s; in data set [3] (setting [5]), 173 ×10⁻⁶ cm/s; in data set [3] (setting [6]), 189 ×10⁻⁶ cm/s; in data set [3] (setting [4]), 116 ×10⁻⁶ cm/s; in data set [3] (setting [7]), 218 ×10⁻⁶ cm/s.
